Patent publication US8097585B2, “Methods of treating inflammation by administration of heme oxygenase-1 and products of heme degradation” (priority 2002, dated 2012)
Where a name gives a salt, the structure may show the parent alone.

How the values were obtained:
[1] = tested on: IL-2 receptor α-chain (IL-2Rα, CD25); test: Flow cytometric analysis of IL-2R (CD25) expression; format: cell-based, mouse; conditions: biliverdin 100 μM, anti-CD3 mAb stimulated, 6 and 24 hours
Protocol: Flow cytometric analysis (IL-2R expression). B6AF1 leukocytes (5×10^5 cells/well) were stimulated with anti-CD3 mAb (1 μg/ml) and cultured in 96 well round bottom plates with or without biliverdin (100 μM). Six and 24 hours after stimulation, cells were harvested, washed, and stained with fluorochrome conjugated isotype control Abs, or specific anti-CD4 and/or anti-CD25 mAbs (all antibodies obtained from BD Pharmingen). Non-stimulated naïve leukocytes were used as a negative control. Following Abs staining, cell samples were analyzed using a FACSort™ flow cytometer and CellQuest™ software (BD Biosciences, Palo Alto, Calif.). Ten thousand CD4+ T cells were acquired for each sample and their CD25 expression was examined. The experiment was repeated 3 times.

[2] = tested on: transplanted islets in diabetic mice; test: Syngeneic islet transplantation, minimal mass model; format: in vivo, DBA/2 mouse; conditions: 50 μmol/kg twice daily day-1 until day 7; 140 islets; control hyperglycemic >52 days
Protocol: The ability of exogenously administered biliverdin to protect transplanted islet was evaluated in the minimal mass model. Syngeneic islet transplantation was carried out in the DBA/2 mouse. Islets (140) were transplanted under the kidney capsule of diabetic mice. Test animals were treated with 50 μmol/kg biliverdin twice daily from day-1 until day 7. The controls were treated with vehicle only. Biliverdin treated animals returned to normoglycemia in 7.7±5.5 days; animals in control group remain hyperglycemic (>52 days).

[3] = tested on: neointimal formation in carotid arteries; test: Carotid balloon injury model, neointimal formation; format: in vivo, Lewis Rats; conditions: 14 days
Excerpt: Animals. Adult male Lewis Rats (LEW/CrlBR; Charles River Laboratories, Wilmington, Mass.) weighing 350-400 g were used in the balloon injury model. Animals were housed in accordance with the guidelines from the American Association for Laboratory Animal Care and research protocols were approved by the institutional animal care and use committee of the Beth Israel Deaconess Medical Center, Boston, Mass.
Balloon Injury model. After the exposure of the left common carotid and the left external carotid arteries, a 2F Fogarty catheter (Edwards Lifesciences LLC, Irvine, Calif.) was introduced via the external carotid artery and was advanced into the left common carotid artery, inflated to 2 atmospheres of pressure and pulled back to the point of bifurcation, then deflated. This procedure was repeated three times.
Experimental reagents and design. […]
Histomorphometric analysis. […] Images were analyzed by manual segmentation, tracing intima and media in each section. Areas and diameters were calculated by digital imaging software (AxioVision™, Carl Zeiss, Jena, Germany) as number of pixels corresponding to those areas and diameters. […] 24 sections from each group were statistically analyzed with StatView® software version 5.0 using ANOVA.

Structure (SMILES): C=CC1=C(C)/C(=C/C2=NC(=C\c3[nH]c(/C=C4\NC(=O)C(C)=C4C=C)c(C)c3CCC(=O)O)/C(CCC(=O)O)=C2C)NC1=O [biliverdin, biliverdin dihydrochloride]
- expression of IL-2Rα (CD25) on splenic CD4+ T cells [1]: did not affect
- time to return to normoglycemia [2]: 7.7 ± 5.5 days
- neointimal formation after balloon injury ([3]; local pre-treatment, instilled into common carotid artery for one hour): significantly inhibits neointimal formation
- neointimal formation after balloon injury ([3]; systemic treatment, 50 μmol/kg i.p. at two time points): significantly inhibits neointimal formation
